Results on 33 compounds are retold here after US20070197512A1, “Carboxylic Acid Compounds and Use Thereof” (Japan Tobacco Inc., priority 2006, published 2007).

The assay concerns the target T1, human URAT1 (Homo sapiens, UniProt Q96S37).
T1 construct: Human URAT1 full length cDNA was subcloned to expression vector pcDNA3.1; expressed in transfected cells; host or cells: HEK293 cells (pcDNA3.1, geneticin-selected)
T1 sequence (Q96S37 1-553): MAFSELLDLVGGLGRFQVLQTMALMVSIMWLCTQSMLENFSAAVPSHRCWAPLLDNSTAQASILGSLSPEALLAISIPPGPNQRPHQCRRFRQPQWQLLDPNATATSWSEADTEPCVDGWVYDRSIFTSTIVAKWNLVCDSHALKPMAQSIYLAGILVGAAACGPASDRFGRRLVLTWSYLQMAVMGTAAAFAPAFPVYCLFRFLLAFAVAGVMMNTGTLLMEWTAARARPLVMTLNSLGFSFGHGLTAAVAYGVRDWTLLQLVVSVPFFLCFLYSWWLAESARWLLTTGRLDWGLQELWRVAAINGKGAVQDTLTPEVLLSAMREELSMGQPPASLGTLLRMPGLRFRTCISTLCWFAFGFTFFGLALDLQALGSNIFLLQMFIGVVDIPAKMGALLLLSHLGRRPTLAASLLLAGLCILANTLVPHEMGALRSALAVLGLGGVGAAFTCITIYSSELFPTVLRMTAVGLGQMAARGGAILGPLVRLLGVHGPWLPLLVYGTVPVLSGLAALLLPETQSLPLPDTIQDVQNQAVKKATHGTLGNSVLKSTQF
Kind of assay: Uric acid transport inhibitory test using human URAT1-expressing cells. The assay is classed as cell-based. The conditions noted are these: human URAT1-expressing HEK293 cells, 14C-uric acid 50 μM, uptake 5 min, room temperature; read-out: hURAT1 IC50. The source says:
Experimental Example 1 Uric Acid Transport Inhibitory Test Using Human URAT1-Expressing Cells
Human URAT1 full length cDNA was subcloned to expression vector pcDNA3.1 and human URAT1 gene was transfected into human embryonic kidney derived cell line (HEK293 cells) by liposome method using Lipofectamine2000. Simultaneously, HEK293 cells transfected with expression vector pcDNA3.1 alone (hereinafter mock cells) were also produced. HEK293 cells expressing human URAT1 gene or mock cells were selected with geneticin resistance as an index. The functional expression of human URAT1 gene was confirmed by a method similar to the following method, using ^14C-uric acid transport into the cells as an index.
Human URAT1-expressing HEK293 cells or mock cells were cultured in Dulbecco's modified Eagle's MEM medium (high glucose) containing 10% fetal bovine serum, 0.5 mg/mL geneticin sulfate, 100 units/mL penicillin and 100 μg/mL streptomycin under the conditions of 37° C. and 5% CO2 in an incubator. The cells were plated in a 96 well plate (poly-D-Lysine coated) at 1×10^5 cells/well and the following uric acid transport inhibitory test was performed 24 hr later. This test was performed at room temperature.
After the medium was removed by aspiration from each well, the cells were washed once with Hank's Balanced Salt Solution (HBSS) and preincubated with HBSS (100 μL/well) for 5 min. HBSS was aspirated and an assay buffer (wherein NaCl in the above-mentioned HBSS had been substituted with Na-gluconate) containing various concentrations of the Example compound and a radioactive ligand (14C-uric acid; final concentration 50 μM) was added to each well at 50 μL/well and an uptake reaction was carried out for 5 min. After the reaction, the cells were washed twice with ice-cold HBSS (150 μL/well), and Microscinti™ 20 (PerkinElmer) was added at 50 μL/well. The cells were lysed by stirring and the radioactivity of each well was measured by a liquid scintillation counter (TOP COUNT, Packard).
The uric acid transport rate (%) of the Example compound at each concentration was calculated relative to the radioactivity (difference in radioactivity between human URAT1-expressing HEK293 cells and mock cells without addition of Example compound (DMSO addition)) showing URAT1 specific uric acid transport as 100%, and the concentration (IC50) of the Example compound necessary for inhibiting the uric acid transport rate by 50% was determined. In Table 24-Table 27, “+++” means IC50 value of less than 300 nM, “++” means IC50 value of 300 nM to less than 3000 nM, and “+” means IC50 value of not less than 3000 nM.
In general, IC50 refers to the concentration that inhibits the measured activity by half. On to `CC(C)C1Oc2c(cc(C(F)(F)F)cc2C(F)(F)F)N(CCC(=O)O)C1=O` (stereo not drawn) [Example 103, 3-[2-isopropyl-3-oxo-6,8-bis(trifluoromethyl)-2,3-dihydrobenzo[1,4]oxazin-4-yl]propionic acid], for which the IC50 lay in the range of 0.3 to 3 µM.

Turning to `CC(C)C1Oc2ccccc2N(CCC(=O)O)C1=O` (stereo not drawn) [Example 32, 3-(2-isopropyl-3-oxo-2,3-dihydrobenzo[1,4]oxazin-4-yl)propionic acid], the IC50 is not below 3 µM.

With `CCc1cccc2c1OC(c1ccccc1)C(=O)N2CCC(=O)O` (stereo not drawn) [Example 59, 3-(8-ethyl-3-oxo-2-phenyl-2,3-dihydrobenzo[1,4]oxazin-4-yl)propionic acid], the concentration for half-maximal inhibition (IC50) fell in the range of 0.3 to 3 µM.

As for `CC(C)c1cccc2c1OC(C(C)C)CN2C(=O)CC(=O)O` (stereo not drawn) [Example 31, 3-(2,8-diisopropyl-2,3-dihydrobenzo[1,4]oxazin-4-yl)-3-oxopropionic acid], the IC50 is not below 3 µM.

As for `CCc1cccc2c1OC(C(C)C)CN2C(=O)/C=C/C(=O)O` (stereo not drawn) [Example 60, (E)-4-(8-ethyl-2-isopropyl-2,3-dihydrobenzo[1,4]oxazin-4-yl)-4-oxo-2-butenoic acid], the IC50 is 0.3 to 3 µM.

For `Cc1cccc2c1OC(c1ccccc1)C(=O)N2CCC(=O)O` (stereo not drawn) [Example 47, 3-(8-methyl-3-oxo-2-phenyl-2,3-dihydrobenzo[1,4]oxazin-4-yl)propionic acid], the IC50 was in the range of 0.3 to 3 µM.

With `O=C(O)/C=C/C(=O)N1CCOc2ccccc21` [Example 28, (E)-4-(2,3-dihydrobenzo[1,4]oxazin-4-yl)-4-oxo-2-butenoic acid], the IC50 is not below 3 µM.

Regarding `CC(C)C1Oc2c(Br)cccc2N(CCC(=O)O)C1=O` (stereo not drawn) [Example 51, 3-(8-bromo-2-isopropyl-3-oxo-2,3-dihydrobenzo[1,4]oxazin-4-yl)propionic acid], the IC50 lay within 0.3 to 3 µM.

Consider `Cc1cc(C)c2c(c1)N(CCC(=O)O)C(=O)C(C(C)C)O2` (stereo not drawn) [Example 61, 3-(2-isopropyl-6,8-dimethyl-3-oxo-2,3-dihydrobenzo[1,4]oxazin-4-yl)propionic acid], for which the IC50 is less than 0.3 µM.

For the compound `CC(C)c1cccc2c1OC(C)(C)C(=O)N2CCC(=O)O` [Example 33, 3-(8-isopropyl-2,2-dimethyl-3-oxo-2,3-dihydrobenzo[1,4]oxazin-4-yl)propionic acid], the IC50 was not below 3 µM.

Regarding `CC(C)c1cccc2c1O[C@@H](C(C)C)C(=S)N2CC(=O)O` [Example 7, ((S)-2,8-diisopropyl-3-thioxo-2,3-dihydrobenzo[1,4]oxazin-4-yl)acetic acid], the IC50 was in the range of 0.3 to 3 µM.

On to `O=C(O)CN1C(=O)CSc2ccccc21` [Example 4, (3-oxo-2,3-dihydrobenzo[1,4]thiazin-4-yl)acetic acid], for which the IC50 was not below 3 µM.

Take `Cc1cc(C)c2c(c1)N(CCC(=O)O)C(=O)C(c1ccccc1)O2` (stereo not drawn) [Example 72, 3-(6,8-dimethyl-3-oxo-2-phenyl-2,3-dihydrobenzo[1,4]oxazin-4-yl)propionic acid]: the IC50 was less than 0.3 µM.

Take `CC(C)C1Oc2c(Cl)cccc2N(CCC(=O)O)C1=O` (stereo not drawn) [Example 100, 3-(8-chloro-2-isopropyl-3-oxo-2,3-dihydrobenzo[1,4]oxazin-4-yl)propionic acid]: the IC50 was less than 0.3 µM.

For `CC(C)c1cccc2c1OC(c1ccccc1)CN2C(=O)/C=C/C(=O)O` (stereo not drawn) [Example 45, (E)-4-(8-isopropyl-2-phenyl-2,3-dihydrobenzo[1,4]oxazin-4-yl)-4-oxo-2-butenoic acid], the IC50 is 0.3 to 3 µM.

`CC(C)c1cccc2c1OCC(=O)N2CC(=O)O` [Example 10, (8-isopropyl-3-oxo-2,3-dihydrobenzo[1,4]oxazin-4-yl)acetic acid]: the half-maximal inhibitory concentration (IC50) is not below 3 µM.

Consider `Cc1cc(Cl)c2c(c1)N(CCC(=O)O)C(=O)C(C(C)C)O2` (stereo not drawn) [Example 98, 3-(8-chloro-2-isopropyl-6-methyl-3-oxo-2,3-dihydrobenzo[1,4]oxazin-4-yl)propionic acid], for which the IC50 is less than 0.3 µM.

`CC(C)c1cccc2c1OC(C(C)C)C(=O)N2Cc1ccccc1C(=O)O` (stereo not drawn) [Example 41, 2-[(2,8-diisopropyl-3-oxo-2,3-dihydrobenzo[1,4]oxazin-4-yl)methyl]benzoic acid]: the IC50 was not below 3 µM.

`CC(C)C1Oc2ccc(Cl)cc2N(CCC(=O)O)C1=O` (stereo not drawn) [Example 63, 3-(6-chloro-2-isopropyl-3-oxo-2,3-dihydrobenzo[1,4]oxazin-4-yl)propionic acid]: the IC50 was less than 0.3 µM.

On to `Cc1ccc2c(c1)N(CCC(=O)O)C(=O)C(C(C)C)O2` (stereo not drawn) [Example 58, 3-(2-isopropyl-6-methyl-3-oxo-2,3-dihydrobenzo[1,4]oxazin-4-yl)propionic acid], for which the IC50 is 0.3 to 3 µM.

On to `Cc1ccc2c(c1)OC(c1ccccc1)CN2C(=O)/C=C/C(=O)O` (stereo not drawn) [Example 57, (E)-4-(7-methyl-2-phenyl-2,3-dihydrobenzo[1,4]oxazin-4-yl)-4-oxo-2-butenoic acid], for which the IC50 is not below 3 µM.

In the case of `CC(C)C1Oc2ccc(C(C)(C)C)cc2N(CCC(=O)O)C1=O` (stereo not drawn) [Example 88, 3-(6-tert-butyl-2-isopropyl-3-oxo-2,3-dihydrobenzo[1,4]oxazin-4-yl)propionic acid], the IC50 fell in the range of 0.3 to 3 µM.

Regarding `COc1cc(C)c2c(c1)N(CCC(=O)O)C(=O)C(C(C)C)O2` (stereo not drawn) [Example 104, 3-(2-isopropyl-6-methoxy-8-methyl-3-oxo-2,3-dihydrobenzo[1,4]oxazin-4-yl)propionic acid], the IC50 was less than 0.3 µM.

As to `O=C(O)CCCCC(=O)N1CCOc2ccccc21` [Example 27, 6-(2,3-dihydrobenzo[1,4]oxazin-4-yl)-6-oxohexanoic acid], the IC50 was not below 3 µM.

As to `CC(C)C1Sc2ccccc2N(CCC(=O)O)C1=O` (stereo not drawn) [Example 22, 3-(2-isopropyl-3-oxo-2,3-dihydrobenzo[1,4]thiazin-4-yl)propionic acid], the IC50 was 0.3 to 3 µM.

`CC(C)(C)c1cccc2c1OC(c1ccccc1)C(=O)N2CCC(=O)O` (stereo not drawn) [Example 49, 3-(8-tert-butyl-3-oxo-2-phenyl-2,3-dihydrobenzo[1,4]oxazin-4-yl)propionic acid]: the IC50 fell in the range of 0.3 to 3 µM.

For the compound `Cc1cc(C)c2c(c1)N(C(=O)/C=C/C(=O)O)CCO2` [Example 85, (E)-4-(6,8-dimethyl-2,3-dihydrobenzo[1,4]oxazin-4-yl)-4-oxo-2-butenoic acid], the IC50 is not below 3 µM.

For the compound `O=C(O)CN1C(=O)COc2ccccc21` [Example 3, (3-oxo-2,3-dihydrobenzo[1,4]oxazin-4-yl)acetic acid], the concentration for half-maximal inhibition (IC50) was not below 3 µM.

As for `O=C(O)CCCC(=O)N1CCOc2ccccc21` [Example 24, 5-(2,3-dihydrobenzo[1,4]oxazin-4-yl)-5-oxovaleric acid], the IC50 is not below 3 µM.

Take `CC(C)C1CN(C(=O)/C=C/C(=O)O)c2ccc(Cl)cc2O1` (stereo not drawn) [Example 68, (E)-4-(7-chloro-2-isopropyl-2,3-dihydrobenzo[1,4]oxazin-4-yl)-4-oxo-2-butenoic acid]: the IC50 is 0.3 to 3 µM.

Regarding `CC(C)C1CN(C(=O)/C=C/C(=O)O)c2cccc(C3CCCCC3)c2O1` (stereo not drawn) [Example 79, (E)-4-(8-cyclohexyl-2-isopropyl-2,3-dihydrobenzo[1,4]oxazin-4-yl)-4-oxo-2-butenoic acid], the IC50 is not below 3 µM.

`O=C(O)CCC(=O)N1CCOc2ccccc21` [Example 23, 4-(2,3-dihydrobenzo[1,4]oxazin-4-yl)-4-oxobutyric acid]: the IC50 was not below 3 µM.

For the compound `CC1(C)Oc2ccccc2N(CC(=O)O)C1=S` [Example 11, (2,2-dimethyl-3-thioxo-2,3-dihydrobenzo[1,4]oxazin-4-yl)acetic acid], the IC50 is not below 3 µM.
